Like-named read-outs stand apart in the source and are kept apart here.
What was measured:
[1] = target: benzodiazepine site of the GABA-A receptor; experiment: Benzodiazepine Receptor Binding Assay (inhibition of 3H-flunitrazepam binding); settings: read-out: GABAA Receptor Binding IC50
[2] = test system: Anxiety in the Adult Male Rat; experiment: Suppression of Anxiety in the Adult Male Rat (rat conflict test); assay type: in vivo, rats; settings: Rattus norvegicus, rat
Outline: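 Male rats, 48 h water- and 24 h food-deprived, trained with 200 unpunished licks, tested at expected peak drug activity. Every 20th lick punished by 0.2-s shock over a 3-min session; increase in median shocks versus concurrent vehicle assessed by one-tailed Mann-Whitney test (p<0.05), validated with a positive-control anxiolytic.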

[3] = test system: metrazol-induced convulsions; experiment: Suppression of Metrazol-Induced Convulsions in Adult Male Mice; assay type: in vivo; settings: Mus musculus, po, mouse
[4] = test system: metrazol-induced convulsions; experiment: as above; assay type: in vivo; settings: Mus musculus, ip, mouse
[5] = ip, ip, read-out: Rat Conflict (MED, mg/kg) ip
[6] = po, po, read-out: Rat Conflict (MED, mg/kg) po

Structure (SMILES) | IC50 [1] | minimal effective dose [2, 5] | minimal effective dose [2, 6] | ED50 [3] | ED50 [4]
CC1(C)OCC(CN2C3=C(C(=O)Nc4ccccc4F)C(=O)CCN3c3ccc(F)cc32)O1 (centres unmarked) [Compound 164] | 2.75 nM | < 10 mg/kg | 10 mg/kg | 1 mg/kg | 0.1 mg/kg
O=C1CCN2C(=C1C(=O)Nc1cccnc1)N(CCOCc1ccccc1)c1cc(F)ccc12 [Compound 165] | 39.2 nM | > 7 mg/kg | – | > 30 mg/kg | 3 mg/kg
O=C1CCN2C(=C1C(=O)Nc1ccccc1F)N(COCc1ccccc1)c1cc(F)ccc12 [Compound 167] | 0.26 nM | > 10 mg/kg | > 10 mg/kg | < 30 mg/kg | < 1 mg/kg
O=C1CCN2C(=C1C(=O)Nc1ccccc1F)N(CCO)c1cc(F)ccc12 [Compound 168, 7-Fluoro-1,2-dihydro-5-(2-hydroxyethyl)-3-oxo-N-(2-fluorophenyl)pyrido[1,2-a]benzimidazole-4-carboxamide] | 1.17 nM | 10 mg/kg | > 10 mg/kg | < 30 mg/kg | < 1 mg/kg
O=C1CCN2C(=C1C(=O)Nc1ccccc1F)N(CCCO)c1cc(F)ccc12 [Compound 169] | 1.08 nM | 10 mg/kg | 10 mg/kg | 0.5 mg/kg | 0.1 mg/kg
O=C1CCN2C(=C1C(=O)Nc1ccccc1F)N(CCCOCc1ccccc1)c1cc(F)ccc12 [Compound 170] | 0.21 nM | < 10 mg/kg | > 10 mg/kg | < 30 mg/kg | < 1 mg/kg
O=C1CCN2C(=C1C(=O)Nc1ccccc1F)N(CCOCc1ccccc1)c1cc(F)ccc12 [Compound 171, 7-Fluoro-1,2-dihydro-5-[2-(benzyloxy)ethyl]-3-oxo-N-(2-fluorophenyl)pyrido[1,2-a]benzimidazole-4-carboxamide] | 1.5 nM | 10 mg/kg | 10 mg/kg | 1 mg/kg | 0.1 mg/kg
CCOCN1C2=C(C(=O)Nc3ccccc3F)C(=O)CCN2c2ccc(F)cc21 [Compound 172] | 0.14 nM | ≤ 10 mg/kg | 0.3 mg/kg | 0.1 mg/kg | 0.01 mg/kg
CCOCN1C2=C(C(=O)Nc3c(F)cccc3F)C(=O)CCN2c2ccc(F)cc21 [Compound 173] | 0.65 nM | > 10 mg/kg | > 10 mg/kg | 3 mg/kg | 1 mg/kg
O=C1CCN2C(=C1C(=O)Nc1ccccc1F)N(CC1CCOC1)c1cc(F)ccc12 (centres unmarked) [Compound 174] | 2.28 nM | – | 3 mg/kg | < 3 mg/kg | < 1 mg/kg
O=C1CCN2C(=C1C(=O)Nc1ccccc1F)N(CC1CCCO1)c1cc(F)ccc12 (centres unmarked) [Compound 175] | 1.5 nM | – | > 10 mg/kg | 2 mg/kg | < 1 mg/kg
CC(C)(C)OC(=O)CN1C2=C(C(=O)Nc3ccccc3F)C(=O)CCN2c2ccc(F)cc21 [Compound 176] | 56.2 nM | – | > 10 mg/kg | > 30 mg/kg | > 1 mg/kg
O=C(O)CN1C2=C(C(=O)Nc3ccccc3F)C(=O)CCN2c2ccc(F)cc21 [Compound 177] | 54.8 nM | – | > 10 mg/kg | > 30 mg/kg | > 1 mg/kg
O=C(Nc1c(F)cccc1F)OCCN1C2=C(C(=O)Nc3c(F)cccc3F)C(=O)CCN2c2ccc(F)cc21 [Compound 179] | 7.65 nM | > 10 mg/kg | – | > 30 mg/kg | 10 mg/kg
CC1(CN2C3=C(C(=O)Nc4ccccc4F)C(=O)CCN3c3ccc(F)cc32)COC1 [Compound 180] | 18 nM | – | > 10 mg/kg | > 30 mg/kg | 1 mg/kg

— EP1420018A1, “Pyrido[1,2-a]benzimidazole derivatives useful in treating central nervous system disorders” (Ortho-McNeil Pharmaceutical, Inc., priority 1996, dated 1998)
